pKi: −log10 of the molar value. Like-named read-outs stand apart in the source and are kept apart here.
Target: T1, cloned human CCR8 receptor stably expressed in L1.2 cells (Homo sapiens, UniProt P51685)
T1 construct: expressed in transfected cells
Test: whole cell binding screen: inhibition of biotinylated human I309 binding to CCR8 (FMAT 8100 HTS)
Settings: biotinylated human I-309, 10 point concentration response starting at 10 μM
Source text: This whole cell binding screen evaluates the ability of compounds to inhibit biotinlyated human I309 binding to the cloned human CCR8 receptor stably expressed in L1.2 cells. Human CCR8 gene was amplified by PCR using PFU polymerase under standard conditions from human genomic DNA purchased from Stratagene. The PCR primers used were:
The 5′ and 3′ primers contained flanking enzyme sites (Bam Hi and Not 1,respectively), which were used to subclone the gene into pcDNA3.1. […] The CCR8 vector was then transfected into L1.2 cells (murine pre-B cells) by electroporation.
Compounds were screened using the FMAT™ 8100 HTS System (purchased from Applied Biosystems).
A suspension was prepared of L1.2/hCCR8 cells at 4.0×10^5 cells/mL in a binding buffer (Buffer consisting of Hanks Balanced Salt Solution (without phenol red), 10 mM HEPES, 0.1% Fatty Acid Free BSA, 0.02% Sodium Azide).
Dilution series of 10 mM stock concentrations of the test compounds were prepared in DMSO and further diluted into binding buffer defined above) to three times the final assay concentration.
10 point concentration response curve is constructed for each compound, starting at 10 μM (final assay concentration in Binding Buffer). […] The components were mixed in wells by covering the plate with aluminum foil and rotating for 0.5 hours. […] Average fluorescence reported for each concentration was normalized to percent inhibition based on negative (no inhibitor) and positive (100 nM excess unlabeled I309 (R and D Systems)) controls.

[1] = L1.2/hCCR8 cells, read-out: Ki of compounds to inhibit I-309 binding to CCR8
[2] = Ki of compounds to inhibit I-309 binding to CCR8, L1.2/hCCR8 cells

T1 sequence (P51685 whole entry): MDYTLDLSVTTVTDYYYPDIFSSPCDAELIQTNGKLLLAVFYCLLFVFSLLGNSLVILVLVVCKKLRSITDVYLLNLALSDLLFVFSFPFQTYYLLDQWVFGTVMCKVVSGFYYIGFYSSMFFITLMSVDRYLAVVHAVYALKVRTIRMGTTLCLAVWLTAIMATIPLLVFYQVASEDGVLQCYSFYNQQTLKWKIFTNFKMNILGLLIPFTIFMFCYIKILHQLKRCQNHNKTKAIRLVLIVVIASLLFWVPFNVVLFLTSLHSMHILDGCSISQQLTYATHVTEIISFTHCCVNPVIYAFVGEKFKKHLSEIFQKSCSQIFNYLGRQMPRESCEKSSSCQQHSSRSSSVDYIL

Row | pKi [1] | Structure (SMILES) | pKi [2]
1 | > 6.30 | CCCC(=O)N1CC[C@H](NS(=O)(=O)c2ccc(N3C(=O)c4ccccc4C3=O)c3ccccc23)[C@H](C)C1 (racemic) [Compound C-75, (±)-(cis)-4-(1,3-Dioxo-1,3-dihydro-isoindol-2-yl)-naphthalene-1-sulfonic acid (1-butyryl-3-methyl-piperidin-4-yl)-amide] | 
2 | > 6.00 | COc1ccc(NS(=O)(=O)c2ccc(NC(=O)c3ccncc3)c3ccccc23)cc1 [Compound B-8, N-[4-(4-Methoxy-phenylsulfamoyl)-naphthalen-1-yl]-isonicotinamide] | 
3 | > 6.30 | CCOC(=O)N1CCC(NS(=O)(=O)c2cccc3c(NC(=O)c4ccco4)cccc23)CC1 [Compound H-8, 4-{5-[(Furan-2-carbonyl)-amino]-naphthalene-1-sulfonylamino}-piperidine-1-carboxylic acid ethyl ester] | 
4 | > 6.30 | CCCC(=O)N1CC[C@@H](NS(=O)(=O)c2ccc(NC(=O)c3ccccc3C)c3ccccc23)[C@@H](C)C1 (single isomer, unassigned) [Compound C-140, cis-N-[4-(1-butyryl-3-methyl-piperidin-4-ylsulfamoyl)-naphthalen-1-yl]-2-methyl-benzamiide] | 
5 | > 6.30 | CC[C@@H]1CN(C(=O)[C@H](C)N)CC[C@H]1NS(=O)(=O)c1ccc(NC(=O)c2ccccc2C)c2ccccc12 [Compound J-32, (3R, 4R)-N-{4-[1-(2-(S)-Amino-propionyl)-3-ethyl-piperidin-4-ylsulfamoyl]-naphthalen-1-yl}-2-methyl-benzamide] | 
6 | > 4.52 | CC(C)(C)OC(=O)N1CCC(NS(=O)(=O)c2ccc(NC(=O)c3ccncc3)c3ccccc23)CC1 [Compound B-22, 4-{4-[(Pyridine-4-carbonyl)-amino]-naphthalene-1-sulfonylamino}-piperidine-1-carboxylic acid tert-butyl ester] | 
7 | > 6.30 | CCC(=O)N1CCC(NS(=O)(=O)c2ccc(NC(=O)c3ccccc3Cl)c3ccccc23)CC1 [Compound C-103, 2-Chloro-N-[4-(1-propionyl-piperidin-4-ylsuffamoyl)-naphthalen-1-yl]-benzamide] | 
8 |  | CCCC(=O)N1CCC(NS(=O)(=O)c2ccc(NC(=O)C3CCCCC3)c3ccccc23)CC1 [Compound D-16, Cyclohexanecarboxylic acid [4-(1-butyryl-piperidin-4-ylsulfamoyl)-naphthalen-1-yl]-amide] | > 6.30
9 | > 4.52 | O=C(Nc1cccc2c(S(=O)(=O)Nc3ccc(F)cc3)cccc12)c1ccccc1 [Compound H-4, N-[5-(4-Fluoro-phenylsulfamoyl)-naphthalen-1-yl]-benzamide] | 
10 | > 5.30 | Cc1ccccc1C(=O)Nc1ccc(S(=O)(=O)N[C@H]2CCNC[C@@H]2CC(C)C)c2ccccc12 [Compound J-56] | 
11 |  | CNC(=O)N1CCC(NS(=O)(=O)c2ccc(NC(=O)c3ccccc3C)c3ccccc23)CC1 [Compound C-41, 4-[4-(2-Methyl-benzoylamino)-naphthalene-1-sulfonylamino]-piperidine-1-carboxylic acid methylamide] | > 6.30
12 | > 6.00 | Cc1ccccc1C(=O)Nc1ccc(S(=O)(=O)NC2CCNCC2)c2c1CCC2 [Compound H-67, 2-Methyl-N-[7-(piperidin-4-ylsulfamoyl)-indan-4-yl]-benzamide] | 
13 | > 6.30 | Cc1ccccc1C(=O)Nc1ccc(S(=O)(=O)NC2(C)CCN(C(=O)OC(C)C)CC2)c2ccccc12 [Compound C-26, 4-Methyl-4-[4-(2-methyl-benzoylaminno)-naphthalene-1-sulfonylamino]-piperidine-1-carboxylic acid isopropyl ester] | 
14 | > 6.00 | CCOC(=O)N1CCC(NS(=O)(=O)c2cccc3c(NC(=O)C4CCCCC4)c(C)ccc23)CC1 [Compound H-22, 4-[5-(Cyclohexanecarbonyl-amino)-6-methyl-naphthalene-1-sulfonylamino]-piperidine-1-carboxylic acid ethyl ester] | 
15 | > 6.30 | Cc1ccccc1C(=O)Nc1ccc(S(=O)(=O)NC2[C@@H](C)CN(C(=O)N(C)C)C[C@@H]2C)c2ccccc12 (racemic) [Compound C-65, (±)-(cisstrans)-3,5-Dimethyl-4-[4-(2-methyl-benzoylamino)-naphthalene-1-sulfonylainno]-piperidine-1-carboxylic acid dimethylamide] | 
16 | > 6.30 | CCOC(=O)N1CCC(NS(=O)(=O)c2ccc(N3C(=O)c4ccccc4C3=O)c3ccccc23)CC1 [Compound A-18, 4-[4-(1,3-Dioxo-1,3-dihydro-isoindol-2-yl)-naphthalene-1-sulfonylamino]-piperidine-1-carboxylic acid ethyl ester] | 

Row | pKi [1] | Structure (SMILES) | pKi [2]
17 | > 6.30 | CC[C@H]1CNCC[C@@H]1NS(=O)(=O)c1ccc(NC(=O)c2ccccc2C)c2ccccc12 [Compound J-47] | 
18 | > 6.00 | CC(=O)N1C[C@@H](C)[C@@H](NS(=O)(=O)c2ccc(NC(=O)c3ccccc3C)c3ccccc23)[C@@H](C)C1 [Compound C-73, (±)-(cis,cis)-N-[4-(1-Acetyl-3,5-dimethyl-piperidin-4-ylsulfamoyl)-naphthalen-1-yl]-2-methyl-benzamide] | 
19 | > 6.30 | CCN(CC)C(=O)N1CCC(NS(=O)(=O)c2ccc(NC(=O)c3ccccc3C)c3ccccc23)CC1 [Compound C-42, 4-[4-(2-Methyl-benzoylamino)-naphthalene-1-sulfonylamino]-piperidine-1-carboxylic acid diethylamide] | 
20 | > 6.30 | Cc1ccccc1NC(=O)c1ccc(S(=O)(=O)NC2CCN(C(=O)N(C)C)CC2)c2ccccc12 [Compound F-12, 4-(4-o-Tolylcarbamoyl-naphthalene-1-sulfonylamino)-piperidine-1-carboxylic acid dimethylamide] | 
21 | > 6.30 | CCOC(=O)N1CC[C@H](NS(=O)(=O)c2ccc(NC(=O)c3ccccc3C)c3ccccc23)[C@H](CO)C1 (racemic) [Compound C-81, (±)-(cis)-3—Hydroxymethyl-4-[4-(2-methyl-benzoylamino)-naphthalene-1-sulfonylamino]-piperidine-1-carboxylic acid ethyl ester] | 
22 | > 4.52 | CCCC(=O)N1CC[C@H](NS(=O)(=O)c2ccc(N)c3ccccc23)[C@H](C)C1 (racemic) [Compound D-1, (±)-(cis)-4-amino-naphthalene-1-sulfonic acid (1-butyryl-3-methyl-piperidin-4-yl)-amide] | 
23 | > 5.30 | CCOC(=O)[C@@H]1CNCC[C@@H]1NS(=O)(=O)c1ccc(NC(=O)c2ccccc2C)c2ccccc12 [Compound J-55] | 
24 |  | Cc1ccccc1C(=O)Nc1ccc(S(=O)(=O)NC2CCN(C(=O)C3CCCC3)CC2)c2ccccc12 [Compound C-38, N-[4-(1-Cyclopentanecarbonyl-piperidin-4-ylsulfamoyl)-naphthalen-1-yl]-2-methyl-benzamide] | > 6.30
25 | > 6.30 | CCCC(=O)N1CCC(NS(=O)(=O)c2ccc(NC(=O)c3ccccc3OC)c3ccccc23)CC1 [Compound C-104, N-[4-(1-Butyryl-piperidin-4-ylsulfamoyl)-naphthalen-1-yl]-2-methoxy-benzamide] | 
26 |  | COc1ccc(NS(=O)(=O)c2ccc(N(C)C(=O)c3ccccc3)c3ccccc23)cc1 [Compound B-33, N-[4-(4-Methoxy-phenylsulfamoyl)-naphthalen-1-yl]-N-methyl-benzamide] | > 4.52
27 | > 4.52 | O=C(Nc1ccc(S(=O)(=O)Nc2cccnc2)c2ccccc12)c1ccccc1 [Compound A-16, N-[4-(Pyridin-3-ylsulfamoyl)-naphthalen-1-yl]-benzamide] | 
28 |  | CCCNC(=O)N1CCC(NS(=O)(=O)c2ccc(NC(=O)c3ccccc3C)c3ccccc23)CC1 [Compound C-45, 4-[4-(2-Methyl-benzoylamino)-naphthalene-1-sulfonylamino]-piperidine-1-carboxylic acid propylamide] | > 6.30
29 | > 6.30 | Cc1ccccc1C(=O)Nc1ccc(S(=O)(=O)N[C@H]2CCN(C(=O)C3(N)CC3)C[C@H]2C)c2ccccc12 [Compound J-9, (3R, 4S)-N-{4-[1-(1-Amino-cyclopropanecarbonyl)-3-methyl-piperidin-4-ylsuffamoyl]-naphthalen-1-yl}-2-methyl-benzamide] | 
30 | > 6.30 | CCNC(=O)N1CCC(NS(=O)(=O)c2ccc(NC(=O)c3ccccc3C)c3c2CCC3)CC1 [Compound H-69, 4-[7-(2-Methyl-benzoylamino)-indane-4-sulfonylamino]-piperidine-1-carboxylic acid ethylamide] | 
31 | > 6.30 | CCC(=O)N1CCC(NS(=O)(=O)c2ccc(NC(=O)c3ccccc3OC)c3ccccc23)CC1 [Compound C-102, 2-Methoxy-N-[4-(1-propionyl-piperidin-4-ylsulfamoyl)-naphthalen-1-yl]-benzamide] | 
32 | > 6.30 | CCOC(=O)N1CCC(NS(=O)(=O)c2ccc(NC(=O)C3CCCCC3)c3c2CCCC3)CC1 [Compound E-6, 4-(4-(Cyclohexanecarbonyl-amino)-5,6,7,8-tetrahydro-naphthalene-1-sulfonylamino)-piperidine-1-carboxylic acid ethyl ester] | 

Source: patent US7491827B2, “Aryl sulfonamides useful as inhibitors of chemokine receptor activity” (Millennium Pharmaceuticals, Inc., priority 2003, dated 2009)
